# In ChEMBL document CHEMBL1649276, “Phenylbutyrate induces antimicrobial peptide expression” (2009):
# The source made the active and inactive calls. No cut-off for these calls is given here.
# What was measured:
# VA10 [1] = assay: Induction of CAMP mRNA expression in human VA10 cells at 4 mM after 24 hrs by RT-PCR analysis; format: functional, cell-based
# U-937 [2] = assay: Induction of CAMP mRNA expression in human U937 cells at 4 mM after 8 to 48 hrs by RT-PCR analysis; format: functional, cell-based
# VA10 [3] = assay: Induction of CAMP mRNA expression in human VA10 cells after 48 hrs by RT-PCR analysis; format: functional, cell-based
# VA10 [4] = assay: Induction of CAMP mRNA expression in human VA10 cells at 4 mM by RT-PCR analysis; format: functional, cell-based; conditions: TDE = time-dependent effect
# HT-29 = assay: Induction of CAMP mRNA expression in human HT-29 cells at 4 mM after 8 to 48 hrs by RT-PCR analysis; format: functional, cell-based
# A498 = assay: Induction of CAMP mRNA expression in human A498 cells at 4 mM after 8 to 48 hrs by RT-PCR analysis; format: functional, cell-based
# VA10 [5] = assay: Induction of DEFB1 mRNA expression in human VA10 cells at 4 mM after 24 hrs by RT-PCR analysis; format: functional, cell-based
# VA10 [6] = assay: Induction of DEFB2 mRNA expression in human VA10 cells at 4 mM after 24 hrs by RT-PCR analysis; format: functional, cell-based
# VA10 [7] = assay: Induction of DEFB3 mRNA expression in human VA10 cells at 4 mM after 24 hrs by RT-PCR analysis; format: functional, cell-based
# VA10 [8] = assay: Induction of DEFB4 mRNA expression in human VA10 cells at 4 mM after 24 hrs by RT-PCR analysis; format: functional, cell-based
# U-937 [9] = assay: Induction of DEFB1 mRNA expression in human U937 cells at 4 mM after 24 to 48 hrs by RT-PCR analysis; format: functional, cell-based
# [10] = Induction of CAMP mRNA expression in human VA10 cells at 4 mM after 24 hrs by RT-PCR analysis in presence of 1,25(OH)2D3 relative to control; format: functional
# VA10 [11] = assay: Induction of LL-37 protein expression in human VA10 cells at 4 mM after 24 hrs by Western blotting; format: functional, cell-based
# VA10 [12] = assay: Induction of LL-37 protein expression in human VA10 cells at 20 nM after 24 hrs by Western blotting; format: functional, cell-based
# VA10 [13] = assay: Induction of CAMP mRNA expression in human VA10 cells at 4 mM after 24 hrs by RT-PCR analysis in presence of protein synthesis inhibitor CHX treated 1 hr before compound challenge; format: functional, cell-based
# VA10 [14] = assay: Induction of CAMP mRNA expression in human VA10 cells at 4 mM after 24 hrs by RT-PCR analysis in presence of JNK inhibitor SP600125 treated 1 hr before compound challenge; format: functional, cell-based
# VA10 [15] = assay: Induction of CAMP mRNA expression in human VA10 cells at 4 mM after 24 hrs by RT-PCR analysis in presence of p38 kinase inhibitor SB203580 treated 1 hr before compound challenge; format: functional, cell-based
# VA10 [16] = assay: Induction of CAMP mRNA expression in human VA10 cells at 4 mM after 24 hrs by RT-PCR analysis in presence of ERK1/2 inhibitor U0126 treated 1 hr before compound challenge; format: functional, cell-based
SMILES,Activity (VA10 [1]),Activity (U-937 [2]),Activity (VA10 [3]),Activity (VA10 [4]),Activity (HT-29),Activity (A498),Activity (VA10 [5]),Activity (VA10 [6]),Activity (VA10 [7]),Activity (VA10 [8]),Activity (U-937 [9]),fold change (FC) [10],Activity (VA10 [11]),Activity (VA10 [12]),Activity (VA10 [13]),Activity (VA10 [14]),Activity (VA10 [15]),Activity (VA10 [16])
CC(Cc1ccccc1)C(=O)O (stereo not given),Active,–,–,–,–,–,–,–,–,–,–,–,–,–,–,–,–,–
CCC(C)(C)C(=O)O,inactive,–,–,–,–,–,–,–,–,–,–,–,–,–,–,–,–,–
O=C([O-])CCCc1ccccc1.[Na+] [SODIUM PHENYLBUTYRATE],Active,Active,Dose-dependent effect,tde,Active,Active,Active,inactive,inactive,inactive,inactive,100,Active,Active,inactive,inactive,inactive,inactive
